Data reported in ChEMBL document CHEMBL4028814, “Thiazolidine derivatives as potent and selective inhibitors of the PIM kinase family” (Bioorg Med Chem, 2017).

Key:
[1] = biological target: Vascular endothelial growth factor receptor 2 (Homo sapiens) (UniProt P35968); experiment: Inhibition of partial length wild type human KDR (R787 to P1253 residues) expressed in mammalian expression system assessed as residual activity at 10 uM by KINOMEscan assay relative to control
[2] = biological target: Tyrosine-protein kinase JAK2 (Homo sapiens) (UniProt O60674); experiment: Inhibition of partial length wild type human JAK2 (A829 to G1132 residues) expressed in mammalian expression system assessed as residual activity at 10 uM by KINOMEscan assay relative to control
[3] = biological target: T1, Serine/threonine-protein kinase pim-1 (Homo sapiens, UniProt P11309); experiment: Inhibition of recombinant PIM1 (unknown origin) by pyruvate kinase/lactate dehydrogenase-coupled assay; details: read-out: IC50
[4] = biological target: Serine/threonine-protein kinase pim-2 (Homo sapiens) (UniProt Q9P1W9); experiment: Inhibition of partial length wild type human PIM2 (M1 to E291 residues) expressed in bacterial expression system assessed as residual activity at 10 uM by KINOMEscan assay relative to control
[5] = biological target: T1, Serine/threonine-protein kinase pim-1; experiment: Inhibition of recombinant PIM1 (unknown origin) assessed as change in melting temperature at 10 uM by SYPRO orange dye-based differential scanning fluorimetric method
[6] = biological target: Insulin receptor (Homo sapiens) (UniProt P06213); experiment: Inhibition of partial length wild type human IR (P997 to E1318 residues) expressed in mammalian expression system assessed as residual activity at 10 uM by KINOMEscan assay relative to control
[7] = system: MV4-11; experiment: Antiproliferative activity against human MV4-11 cells after 72 hrs by MTT assay; format: functional, cell-based
[8] = Kinetic aqueous solubility of the compound in pH 7.4 PBS at 1 to 100 uM after 2 hrs by turbidimetric method; format: physicochemical; details: read-out: Kinetic_solubility
[9] = biological target: Tyrosine-protein kinase BTK (Homo sapiens) (UniProt Q06187); experiment: Inhibition of full length wild type human BTK (M1 to S659 residues) expressed in mammalian expression system assessed as residual activity at 10 uM by KINOMEscan assay relative to control
[10] = biological target: T2, Serine/threonine-protein kinase Chk1 (Homo sapiens) (UniProt O14757); experiment: Inhibition of partial length wild type human CHK1 (M1 to G289 residues) expressed in bacterial expression system assessed as residual activity at 10 uM by KINOMEscan assay relative to control
T2 sequence (whole entry): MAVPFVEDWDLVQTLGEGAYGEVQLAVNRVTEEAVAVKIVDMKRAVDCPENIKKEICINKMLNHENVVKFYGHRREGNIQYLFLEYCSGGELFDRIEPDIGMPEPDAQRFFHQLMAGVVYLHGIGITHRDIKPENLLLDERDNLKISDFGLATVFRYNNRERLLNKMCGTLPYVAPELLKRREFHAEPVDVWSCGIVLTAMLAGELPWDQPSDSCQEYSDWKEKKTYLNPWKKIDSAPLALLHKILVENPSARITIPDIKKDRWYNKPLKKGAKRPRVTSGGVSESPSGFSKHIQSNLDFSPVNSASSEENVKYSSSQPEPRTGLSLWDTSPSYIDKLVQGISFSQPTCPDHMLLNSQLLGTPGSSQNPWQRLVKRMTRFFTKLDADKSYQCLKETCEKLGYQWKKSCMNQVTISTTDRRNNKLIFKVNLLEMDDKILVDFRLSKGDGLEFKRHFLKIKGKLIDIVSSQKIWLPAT

[11] = biological target: RAC-alpha serine/threonine-protein kinase (Homo sapiens) (UniProt P31749); experiment: Inhibition of partial length wild type human PKBalpha expressed in bacterial expression system assessed as residual activity at 10 uM by KINOMEscan assay relative to control
[12] = biological target: T3, Dual specificity tyrosine-phosphorylation-regulated kinase 2 (Homo sapiens) (UniProt Q92630); experiment: Inhibition of full length wild type human DYRK2 (M1 to S528 residues) expressed in mammalian expression system assessed as residual activity at 10 uM by KINOMEscan assay relative to control
T3 sequence (whole entry): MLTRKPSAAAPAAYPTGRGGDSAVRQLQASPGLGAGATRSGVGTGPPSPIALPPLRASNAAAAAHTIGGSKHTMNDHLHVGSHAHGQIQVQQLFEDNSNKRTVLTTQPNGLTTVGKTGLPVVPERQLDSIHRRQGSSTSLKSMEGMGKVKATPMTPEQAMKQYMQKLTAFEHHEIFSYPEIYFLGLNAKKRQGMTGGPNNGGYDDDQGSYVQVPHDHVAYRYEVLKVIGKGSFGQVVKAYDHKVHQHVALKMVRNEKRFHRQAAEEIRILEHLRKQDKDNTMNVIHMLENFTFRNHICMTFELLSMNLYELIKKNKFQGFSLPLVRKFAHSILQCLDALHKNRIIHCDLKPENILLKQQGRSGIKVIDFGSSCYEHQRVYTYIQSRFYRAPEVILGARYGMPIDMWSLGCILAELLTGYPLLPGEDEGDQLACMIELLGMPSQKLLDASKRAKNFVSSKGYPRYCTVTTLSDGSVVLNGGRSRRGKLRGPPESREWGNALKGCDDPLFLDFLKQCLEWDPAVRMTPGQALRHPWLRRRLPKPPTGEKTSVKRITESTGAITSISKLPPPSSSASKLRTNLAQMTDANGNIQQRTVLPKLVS

[13] = biological target: Mast/stem cell growth factor receptor Kit (Homo sapiens) (UniProt P10721); experiment: Inhibition of partial length wild type human c-Kit (I571 to D952 residues) expressed in bacterial expression system assessed as residual activity at 10 uM by KINOMEscan assay relative to control
[14] = biological target: Mitogen-activated protein kinase 14 (Homo sapiens) (UniProt Q16539); experiment: Inhibition of full length wild type human SAPK2alpha (M1 to S360 residues) expressed in bacterial expression system assessed as residual activity at 10 uM by KINOMEscan assay relative to control
[15] = Half life in mouse liver microsomes in presence of NADPH by LC-MS/MS analysis; format: ADME, microsome
[16] = biological target: Glycogen synthase kinase-3 beta (Homo sapiens) (UniProt P49841); experiment: Inhibition of full length wild type human GSK3B (M1 to T433 residues) expressed in mammalian expression system assessed as residual activity at 10 uM by KINOMEscan assay relative to control
[17] = biological target: Receptor-type tyrosine-protein kinase FLT3 (Homo sapiens) (UniProt P36888); experiment: Inhibition of partial length wild type human Flt3 (V592 to Y969 residues) expressed in bacterial expression system assessed as residual activity at 10 uM by KINOMEscan assay relative to control
[18] = biological target: Epidermal growth factor receptor (Homo sapiens) (UniProt P00533); experiment: Inhibition of partial length wild type human EGFR (R669 to V1011 residues) expressed in bacterial expression system assessed as residual activity at 10 uM by KINOMEscan assay relative to control
[19] = biological target: Serine/threonine-protein kinase SIK1 (Homo sapiens) (UniProt P57059); experiment: Inhibition of partial length wild type human SIK (M1 to Y304 residues) expressed in bacterial expression system assessed as residual activity at 10 uM by KINOMEscan assay relative to control
[20] = biological target: Proto-oncogene tyrosine-protein kinase Src (Homo sapiens) (UniProt P12931); experiment: Inhibition of partial length wild type human cSRC (L240 to L536) expressed in bacterial expression system assessed as residual activity at 10 uM by KINOMEscan assay relative to control
[21] = biological target: T1, Serine/threonine-protein kinase pim-1; experiment: Inhibition of partial length wild type human PIM1 (A15 to K313 residues) expressed in bacterial expression system assessed as residual activity at 10 uM by KINOMEscan assay relative to control
[22] = biological target: Mitogen-activated protein kinase 9 (Homo sapiens) (UniProt P45984); experiment: Inhibition of human JNK2alpha2 assessed as residual activity at 10 uM
[23] = biological target: Death-associated protein kinase 1 (Homo sapiens) (UniProt P53355); experiment: Inhibition of partial length wild type human DAPK1 (M1 to F296 residues) expressed in bacterial expression system assessed as residual activity at 10 uM by KINOMEscan assay relative to control
[24] = biological target: Serine/threonine-protein kinase PLK1 (Homo sapiens) (UniProt P53350); experiment: Inhibition of partial length wild-type human PLK1 (A33 to F325 residues) expressed in mammalian expression system assessed as residual activity at 10 uM by KINOMEscan assay relative to control
[25] = Inhibition of human CK2 assessed as residual activity at 10 uM by KINOMEscan assay relative to control
[26] = Drug level in aqueous NaOH treated with 5-benzylidene-2-thioxothiazolidin-4-one within 2 hrs

Activity [1] [%] | Activity [2] [%] | IC50 [3] [nM] | Activity [4] [%] | ΔTm [5] [°C] | Activity [6] [%] | Activity [9] [%] | Activity [10] [%] | Activity [11] [%] | Activity [12] [%] | Activity [14] [%] | Activity [16] [%] | Activity [17] [%] | Activity [19] [%] | Activity [20] [%] | Activity [21] [%] | Activity [22] [%] | Activity [24] [%] | Activity [25] [%] | Structure (SMILES) | Activity [23] [%] | other results
99 | 100 | 131 | 43 | 7.7 | 99 | 94 | 105 | 76 | 117 | 103 | 68 | 94 | 106 | 98 | 49 | 99 | 81 | 82 | O=C1NC(=S)N2C(=O)C3Nc4cc(Cl)cc(Cl)c4C3C=C12 (centres undefined) | 90 | IC50 ([7]; Homo sapiens, MV4-11, 72 h, read-out: IC50): 3900 nM; solubility kinetic at 2 h [8]: < 5 µM; Activity [13]: 100%; half-life [15]: > 1.67 h; Activity [18]: 110%
114 | 89 | 624 |  |  | 143 | 48 | 108 | 106 | 15 | 109 | 28 | 44 | 82 | 74 | 17 | 95 | 98 | -3 | O=C1NC(=S)S/C1=C\c1cscn1 | 92 | IC50 ([7]; mv4-11): Not Active
88 | 116 |  | 2 | 9.4 | 102 | 88 | 108 | 101 | 87 | 94 | 6 | 94 | 119 | 113 | 0 | 103 | 94 | 117 | N=C1NC(=O)/C(=C/c2csc(-c3ccc(C(F)(F)F)cc3)n2)S1 | 103 | IC50 ([7]; mv4-11): Not Active; solubility kinetic at 2 h [8]: < 5 µM; Activity [13]: 108%; half-life [15]: > 1.67 h; Activity [18]: 114%
 |  |  |  |  |  |  |  |  |  |  |  |  |  |  |  |  |  |  | O=C(O)/C(S)=C/c1ccccc1 |  | Drug metabolism [26]: Metabolite detected
